From patent US7122573B2, “Analogs of green tea polyphenols as chemotherapeutic and chemopreventive agents” (SRI International, priority 2002, dated 2006)

What was measured:
Assay type in all cases: cell-based
MCF-7 (ER+) = assay: Growth inhibition assay (MTT, 8 days) in MCF-7 breast cancer cells
Description: (§1) Compounds of the invention were tested for their ability to inhibit growth in two breast cancer cell lines, MCF-7 (ER+) and MDA-MB-231 (ER−).
(§2) The growth inhibition assays were conducted using routine methods. Briefly, the cells were seeded in 24-well plates at a density of 2000 cells per well in 200 μL of […] growth medium. To each well was added 10 μL of DMSO containing the dissolved test compound; final DMSO concentration in each well was not more than 0.5%. Each test compound was assayed at concentrations of 0.4, 2, 10, and 50 μM. The plates were incubated for eight days, with the media and test solutions replaced every third day. On Day 8, the viable cells were measured by the MTT assay, as described in Mosmann et al. (1983), “Rapid Colorimetric Assay for Cellular Growth and Survival: Application to Proliferation and Cytotoxicity,” J. Immunol. Method. 65:55–63. The optical density at 575 nm of each test well was measured and compared to that for control wells, and the data used to calculate the percentage of growth inhibition at different concentrations. The IC50 value (the concentration of growth inhibitor that results in 50% growth inhibition of the cells in culture relative to control cells not exposed to any growth inhibitor) was determined by plotting dose-response curves.
(§3) The calculated IC50 values are set forth in Table 1, with the results representing the average of at least two experiments conducted for each compound at each of the four concentrations.

MDA-MB-231 (ER−) = assay: Growth inhibition assay (MTT, 8 days) in MDA-MB-231 breast cancer cells
Description: as §1, §2, §3

[1] = system: human lung tumor cells (A427); assay: Anchorage-independent growth inhibition assay (colony formation in soft agar)
Description: (§4) An anchorage-independent growth inhibition assay was performed as described in Korytynski, et al. (1996) “The development of an anchorage-independence assay using human lung tumor cells to screen potential chemopreventive agents,” Anticancer Res. 16, 1091–1094; and Sharma, et al. (1997) “The anchorage-independent assay as a screening tool to identify potential chemopreventive agents,” Methods Cell Sci. 19, 9–12. The assay measures the inhibition of colony formation of human lung tumor cells (A427) cells grown in soft agar. In this assay, A427 cells were grown in the presence of the test agent, SR 13196, EGCG or 13-cis-RA Control samples were tested using an equivalent volume of DMSO alone. A concurrent assay for cell survival was also performed.

[2] = system: human lung tumor cells (A427); assay: Concurrent assay for cell survival; details: for surviving cells: highest concentration tested (25 μM)
Description: as §4

[3] = Homo sapiens, MCF7, Table 2, procedures repeated with additional compounds
[4] = Homo sapiens, MDA-MB-231, Table 2, procedures repeated with additional compounds
[5] = Table 1, MTT on Day 8, average of at least two experiments
[6] = Table 2, procedures repeated with additional compounds

Molecule | IC50 (MCF-7 (ER+); [3]) [µM] | IC50 (MDA-MB-231 (ER−); [4]) [µM] | Observed Colonies ([1]; 1.56 μM) | Observed Colonies ([1]; 3.12 μM) | Observed Colonies ([1]; 6.25 μM) | Observed Colonies ([1]; 12.5 μM) | Observed Colonies ([1]; 25 μM) | Surviving Fraction ([2]; 1.56 μM) | Surviving Fraction ([2]; 3.12 μM) | Surviving Fraction ([2]; 6.25 μM) | Surviving Fraction ([2]; 12.5 μM) | Surviving Fraction ([2]; 25 μM) | surviving cells [2] [%] | also measured
COc1cc([C@H]2Oc3cc(O)cc(O)c3C[C@H]2OC(=O)c2cc(C)c(O)c(C)c2)cc(OC)c1OC [SR 13197] | 124 | 55.4 |  |  |  |  |  |  |  |  |  |  |  | 
O=C(O[C@@H]1Cc2c(O)cc(O)cc2O[C@@H]1c1cc(O)c(O)c(O)c1)c1cc(O)c(O)c(O)c1 [EGCG, (−)-epigallocatechin-3-gallate] |  |  | 398 | 310 | 282 | 139 | 97 | 0.99 | 0.98 | 0.97 | 0.85 | 0.39 | 39 | IC50 (MCF-7 (ER+); [5]): 8.22 µM; IC50 (MCF-7 (ER+); [6]): 16.8 µM; IC50 (MDA-MB-231 (ER−); [5]): 11.9 µM; IC50 (MDA-MB-231 (ER−); [6]): 5.76 µM; % Inhibition (colony formation) ([1]; 1.56 μM): 0%; % Inhibition (colony formation) ([1]; 3.12 μM): 19%; % Inhibition (colony formation) ([1]; 6.25 μM): 25%; % Inhibition (colony formation) ([1]; 12.5 μM): 40%; % Inhibition (colony formation) ([1]; 25 μM): 50%
COc1cc([C@H]2Oc3cc(O)cc(O)c3C[C@H]2OC(=O)c2cc(C)c(O)c(C)c2)cc(OC)c1OC (relative stereo) [SR 13196] |  |  | 268 | 108 | 38 | 28 | 8 | 0.71 | 0.41 | 0.17 | 0.12 | 0.11 | 11 | IC50 (MCF-7 (ER+); Homo sapiens, MCF7, 192 h, Table 1, MTT on Day 8, average of at least two experiments): 11.1 µM; IC50 (MDA-MB-231 (ER−); Homo sapiens, MDA-MB-231, 192 h, Table 1, MTT on Day 8, average of at least two experiments): 12.7 µM
Oc1cc(O)c2c(c1)O[C@H](c1cc(O)c(O)c(O)c1)[C@H](O)C2 [EGC (2,3-cis), (−)-epigallocatechin] |  |  |  |  |  |  |  |  |  |  |  |  |  | IC50 (MCF-7 (ER+); [5]): 29.8 µM; IC50 (MDA-MB-231 (ER−); [5]): 27.3 µM
CC1=C(/C=C/C(C)=C/C=C/C(C)=C\C(=O)O)C(C)(C)CCC1 [13-cis-RA] |  |  | 310 | 269 | 206 | 179 | 142 | 0.85 | 0.82 | 0.83 | 0.74 | 0.68 | 68 | % Inhibition (colony formation) ([1]; 1.56 μM): 8%; % Inhibition (colony formation) ([1]; 3.12 μM): 16%; % Inhibition (colony formation) ([1]; 6.25 μM): 28%; % Inhibition (colony formation) ([1]; 12.5 μM): 35%; % Inhibition (colony formation) ([1]; 25 μM): 43%
Cc1cc(C)c2c(c1)O[C@H](c1cc(O)c(O)c(O)c1)[C@H](OC(=O)c1cc(C)c(O)c(C)c1)C2 [SR 13913] | 16.2 | 20.1 |  |  |  |  |  |  |  |  |  |  |  | 
trans-5,7-DIMETHYL-2-(3,4,5-TRIHYDROXY-PHENYL)-3,4-DIHYDRO-2H-CHROMAN-3-YL, 3,4,5,-TRIHYDROXY-BENZOIC ACID ESTER [SR 13911] |  |  |  |  |  |  |  |  |  |  |  |  |  | IC50 (MCF-7 (ER+); [6]): 23.5 µM; IC50 (MDA-MB-231 (ER−); [6]): 42 µM

The next lines start with results.

IC50 (MCF-7 (ER+); [3]) [µM] | IC50 (MDA-MB-231 (ER−); [4]) [µM] | Molecule | Observed Colonies ([1]; 1.56 μM) | Observed Colonies ([1]; 3.12 μM) | Observed Colonies ([1]; 6.25 μM) | Observed Colonies ([1]; 12.5 μM) | Observed Colonies ([1]; 25 μM) | Surviving Fraction ([2]; 1.56 μM) | Surviving Fraction ([2]; 3.12 μM) | Surviving Fraction ([2]; 6.25 μM) | Surviving Fraction ([2]; 12.5 μM) | Surviving Fraction ([2]; 25 μM) | surviving cells [2] [%] | also measured
39.6 | 62.1 | Cc1cc(C)c2c(c1)O[C@H](c1cc(O)c(O)c(O)c1)[C@H](OC(=O)c1cc(O)c(O)c(O)c1)C2 [SR 13912] |  |  |  |  |  |  |  |  |  |  |  | 
58.1 | 47.9 | COc1cc(OC)c2c(c1)OC(c1cc(O)c(O)c(O)c1)[C@H](OC(=O)c1cc(O)c(O)c(O)c1)C2 (stereo partly drawn) [SR 13198, trans-5,7-DIMETHOXY-2-(3,4,5-TRIHYDROXY-PHENYL)-3,4-DIHYDRO-2H-CHROMAN-3-YL, 3,4,5-TRIHYDROXY-BENZOIC ACID ESTER] |  |  |  |  |  |  |  |  |  |  |  | 
